Where two headings read alike, the source gives them in different places.
Columns and labels:
[1] = log P by HPLC on reversed-phase column (C 18), EEC Directive 79/831 Annex V.A8; format: physicochemical; settings: 55° C.; for LOGP_HCOOH: log P (HCOOH); for LOGP_NEUTRAL: log P, neutral range; for chromatographic logP: reversed-phase HPLC column (C 18)
Experimental: Temperature: 55° C. […] Called log P (HCOOH) in the table. […] Called log P (neutral) in the table.

Ctenocephalides felis = Ctenocephalides felis oral test; format: in vivo; settings: application rate 100 ppm in citrated cattle blood, after 2 days, adult cat fleas; for pest or weed control at 100 ppm: Ctenocephalides felis, po, 48 h, read-out: efficacy (kill in %)
Experimental: Ctenocephalides felis—Oral Test Solvent: dimethyl sulphoxide To produce a suitable active ingredient formulation, 10 mg of active ingredient are mixed with 0.5 ml of dimethyl sulphoxide. Dilution with citrated cattle blood gives the desired concentration. About 20 unfed adult cat fleas (Ctenocephalides felis) are placed into a chamber which is closed at the top and bottom with gauze. A metal cylinder whose bottom end is closed with parafilm is placed onto the chamber. The cylinder contains the blood/active ingredient formulation, which can be imbibed by the fleas through the parafilm membrane. After 2 days, the kill in % is determined. 100% means that all of the fleas have been killed; 0% means that none of the fleas have been killed.

Lucilia cuprina = Lucilia cuprina test; format: in vivo; settings: application rate 100 ppm, after 2 days, L1 larvae
Experimental: Lucilia cuprina Test Solvent: dimethyl sulphoxide To produce a suitable active ingredient formulation, 10 mg of active ingredient are mixed with 0.5 ml of dimethyl sulphoxide, and the concentrate is diluted with water to the desired concentration. About 20 L1 larvae of the Australian sheep blowfly (Lucilia cuprina) are transferred into a test vessel containing minced horsemeat and the active ingredient formulation of the desired concentration. After 2 days, the kill in % is determined. 100% means that all the larvae have been killed; 0% means that no larvae have been killed.

Phaedon cochleariae = Phaedon cochleariae spray test; format: in vivo; settings: after 7 days, Chinese cabbage leaf discs; for pest or weed control at 100 g/ha / pest or weed control at 500 g/ha: Phaedon cochleariae, foliar, 168 h, read-out: efficacy (beetle larvae killed)
In short: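 Larval kill read at day 7 as percent, where 100% means every larva dead and 0% none; larvae were placed on dried Brassica pekinensis leaf discs previously sprayed with the formulation (acetone/dimethylformamide solvent, alkylaryl polyglycol ether emulsifier, water).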

Spodoptera frugiperda = Spodoptera frugiperda spray test; format: in vivo; settings: after 7 days, maize leaf discs; for pest or weed control at 100 g/ha / pest or weed control at 500 g/ha: Spodoptera frugiperda, foliar, 168 h, read-out: efficacy (caterpillars killed)
In short: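 Efficacy in % was scored at 7 days against armyworm caterpillars placed on dried, compound-sprayed Zea mays leaf discs. Compound was dissolved in acetone/dimethylformamide and diluted in water with 1000 ppm alkylaryl polyglycol ether. 100% means all caterpillars were killed.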

[2] = acidic range pH 2.7, 0.1% aqueous formic acid and acetonitrile, reversed-phase column (C 18)
[3] = HPLC on reversed-phase column (C 18)
[4] = acidic range at pH 2.7, 0.1% aqueous formic acid and acetonitrile, HPLC on reversed-phase column (C 18)
[5] = pH 2.7, LC-MS acidic range, pH 2.7, 0.1% formic acid/acetonitrile, read-out: log P (acidic) / log P (HCOOH)

SMILES	LOGP_HCOOH [1, 2]	LOGP_NEUTRAL [1, 3]	LOGP_HCOOH [1, 4]	chromatographic logP [1, 5]	chromatographic logP ([1]; pH 7.8, LC-MS neutral range, pH 7.8, ammonium hydrogencarbonate/acetonitrile, read-out: log P (neutral))	efficacy (kill in %) (Ctenocephalides felis)	efficacy (kill in %) (Lucilia cuprina)	efficacy (beetle larvae killed) (Phaedon cochleariae; application rate 100 g/ha)	efficacy (beetle larvae killed) (Phaedon cochleariae; application rate 500 g/ha)	efficacy (caterpillars killed) (Spodoptera frugiperda; application rate 100 g/ha)	efficacy (caterpillars killed) (Spodoptera frugiperda; application rate 500 g/ha)	pest or weed control at 100 ppm (Ctenocephalides felis)	pest or weed control at 100 g/ha (Phaedon cochleariae; application rate 100 g/ha)	pest or weed control at 500 g/ha (Phaedon cochleariae; application rate 500 g/ha)	pest or weed control at 100 g/ha (Spodoptera frugiperda; application rate 100 g/ha)	pest or weed control at 500 g/ha (Spodoptera frugiperda; application rate 500 g/ha)
CC(C)C(=O)Nc1cc(-c2ccc(OC(F)(F)F)cc2)cc(C(=O)NCc2ccc(C#N)cc2F)n1 [Example I-081]	4.22	4.09				100%	100%	83%	100%	100%	100%					
N#Cc1cc(F)c(CNC(=O)c2cc(-c3ccc(OC(F)(F)F)cc3)cc(NC(=O)C3CC3)n2)c(F)c1 [Example I-082]	4.12	4.01				100%	100%	100%	100%	100%	100%					
O=C(NCc1ccc(-c2ncon2)cc1)c1cc(-c2ccc(SC(F)(F)F)cc2)cc(NC(=O)C2CC2)n1 [Example I-093]	4.28	4.15				95%	100%	100%	100%		100%					
O=C(NCc1ccc(-c2ncon2)cc1)c1cc(-c2ccc(OC(F)(F)F)cc2)cc(NC(=O)C2CC2)n1 [Example I-094]	3.96	3.84				100%	100%	100%	100%		100%					
N#Cc1ccc(CNC(=O)c2cc(-c3ccc(S(=O)(=O)C(F)(F)F)cc3)cc(NC(=O)C3CC3)n2)cc1 [Example I-096]		3.47				100%	100%	100%	100%	100%	100%					
Cc1cc(-c2cc(NC(=O)C3CC3)nc(C(=O)NCc3ccc(C#N)cc3)c2)ccc1OC(F)(F)F [Example I-098]	4.21	4.11				100%	100%	100%	100%	100%	100%					
CC(C)(C#N)NC(=O)c1cc(-c2ccc(OC(F)(F)F)cc2)cc(NC(=O)C2CC2)n1 [Example I-108]	3.77	3.64				100%	90%		83%	100%	83%					

The next lines start with results.

LOGP_HCOOH [1, 2]	LOGP_NEUTRAL [1, 3]	LOGP_HCOOH [1, 4]	chromatographic logP [1, 5]	chromatographic logP ([1]; pH 7.8, LC-MS neutral range, pH 7.8, ammonium hydrogencarbonate/acetonitrile, read-out: log P (neutral))	SMILES	efficacy (kill in %) (Ctenocephalides felis)	efficacy (kill in %) (Lucilia cuprina)	efficacy (beetle larvae killed) (Phaedon cochleariae; application rate 100 g/ha)	efficacy (beetle larvae killed) (Phaedon cochleariae; application rate 500 g/ha)	efficacy (caterpillars killed) (Spodoptera frugiperda; application rate 100 g/ha)	efficacy (caterpillars killed) (Spodoptera frugiperda; application rate 500 g/ha)	pest or weed control at 100 ppm (Ctenocephalides felis)	pest or weed control at 100 g/ha (Phaedon cochleariae; application rate 100 g/ha)	pest or weed control at 500 g/ha (Phaedon cochleariae; application rate 500 g/ha)	pest or weed control at 100 g/ha (Spodoptera frugiperda; application rate 100 g/ha)	pest or weed control at 500 g/ha (Spodoptera frugiperda; application rate 500 g/ha)
	4.06	4.18			CCCCNC(=O)c1cc(-c2ccc(OC(F)(F)F)cc2)cc(NC(=O)C2CC2)n1 [Example I-113]	100%	100%		100%	83%	100%					
	2.95	3.07			O=C(NC1COC1)c1cc(-c2ccc(OC(F)(F)F)cc2)cc(NC(=O)C2CC2)n1 [Example I-117]	100%	95%		100%	100%	100%					
	3.65	3.74			N#Cc1ccc(CNC(=O)c2cc(-c3ccc(S(=O)(=O)C(F)(F)F)cc3)cc(NC(=O)C3CC3)n2)cc1F [Example I-120]	100%	100%	100%	100%	100%	100%					
	3.78	3.87			N#Cc1ccc(CNC(=O)c2cc(-c3ccc(OC(F)(F)F)cc3F)cc(NC(=O)C3CC3)n2)cc1 [Example I-124]	100%	100%	100%	100%	100%	100%					
		3.84			O=C(NCC1CC1)c1cc(-c2ccc(OC(F)(F)F)cc2)cc(NC(=O)C2CC2)n1 [Example I-141]	100%	100%	100%	100%	83%	100%					
	4.14	4.25	4.25	4.14	N#Cc1ccc(CNC(=O)c2cc(-c3ccc(C(F)(F)C(F)(F)F)c(F)c3)cc(NC(=O)C3CC3)n2)cc1 [Example I-149, N-(4-Cyanobenzyl)-6-[(cyclopropylcarbonyl)amino]-4-[3-fluoro-4-(pentafluoroethyl)phenyl]pyridine-2-carboxamide]		100%					100%	100%	100%	100%	100%
	4.31	3.98			N#Cc1ccc(CNC(=O)c2cc(-c3ccc(S(F)(F)(F)(F)F)cc3)cc(NC(=O)C3CC3)n2)cc1 [Example I-173]	100%	100%	100%	100%	100%	100%					
	3.83				O=C(NCCC(F)(F)F)c1cc(-c2ccc(OC(F)(F)F)cc2)cc(NC(=O)C2CC2)n1 [Example I-176]	100%	100%	100%	100%	100%	100%					
		3.81	3.81		N#Cc1ccc(CNC(=O)c2cc(-c3ccc(SC(F)(F)C(F)F)cc3)cc(NC(=O)C3CC3)n2)cc1 [Example I-178, N-(4-Cyanobenzyl)-6-[(cyclopropylcarbonyl)amino]-4-{4-[(1,1,2,2-tetrafluoroethyl)sulphanyl]phenyl}pyridine-2-carboxamide]		100%					100%	100%	100%	100%	100%
		4.09			N#Cc1ccc(CNC(=O)c2cc(-c3ccc(OC(F)(F)Cl)cc3)cc(NC(=O)C3CC3)n2)cc1 [Example I-190]	100%	100%	100%	100%	100%	100%					
	3.40	3.42			CC(F)(F)c1ccc(-c2cc(NC(=O)C3CC3)nc(C(=O)NCc3ccc(C#N)cc3)c2)cc1 [Example I-192]	100%	90%	100%	100%	100%	100%					
